# Data as given in patent US20200399329A1, “ANTIMICROBIAL PEPTIDES” (priority 2015, published 2020).
# Where a SMILES comes first, the peptide text is derived from it.
# What was measured:
# [1] = system: human primary erythrocytes; test: Hemolysis, cell count and MCV of human primary erythrocytes; format: cell-based
# Experimental: Since the peptides of the invention are intended inter-alia to operate in wounds or other damaged tissue, a direct contact with patients' blood may occur. Accordingly, an experiment was conducted in order to assess whether OMN6 has cytotoxic effects on human primary erythrocytes. These cells lack any defense mechanism to protect them against damage to the plasma membrane and therefor are a standard model for evaluating cytotoxic effects on eukaryotic cells. The parameter that was measured was the ability of OMN6 to cause hemolysis, red blood cells death, in human erythrocytes. The experiments were performed on human blood samples using ABX PENTRA DF120 machine routinely used by hospital personnel to conduct such tests.
# The Mean Corpuscular Volume (MCV) of the erythrocytes is a well-accepted indication of the cells' health and membrane integrity. The experiment was conducted to assess whether OMN6, which forms pores in bacterial membranes, has the ability to damage human cells plasma-membrane. […] (Table 5).
# Table 4 and Table 5: hemolysis and Mean Corpuscular Values (MCV) of human primary erythrocytes were evaluated after treatment with OMN6.
# E. coli ESBL BAA-198 = format: cell-based, Escherichia coli
# Experimental: (§1) In order to determine the MIC values of the peptides, growth and inhibition of various bacteria were monitored after treatment with the peptides of the invention (Table 6).
# (§2) E. coli bacteria were cultured with or without OMN6 in increasing concentrations of 0.8-200 μM and with or without Fetal Bovine Serum 10% for 17-20 hours. The growth of the bacteria was continuously monitored via spectrophotometry at 600 nm. As bacterial growth progresses, OD600 nm values rise, and where the growth is inhibited OD600 nm values remain constant.
# (§3) The experimental system and parameters described here were used to determine the MIC values of OMN2, OMN6, OMN7 and OMN11 on various bacteria strains (Table 7 and Table 8).
# E. coli Sens. 25922 = format: cell-based, Escherichia coli
# Experimental: as §1, §2, §3
# [2] = Preliminary topical safety in mice; format: in vivo; details: topical single dose 0.5-4 mg/kg
# Experimental: The antimicrobial peptide OMN6 was administered to mice in order to evaluate and quantify whether toxic effects are present. OMN6 peptide (C195H332N56O49S3) was administered topically according to concentrations and groups detailed in Table 9.
# Mice approved for this experiment: Outbred Hsd:ICR (CD-1®)—weight 18-20 g. Saline solution (0.9% NaCl) as sham treatment or OMN6 dissolved in saline were administered directly onto the skin of mice after the hair was shaved. A total volume of 16 μl was administered to each animal.
# In this experiment, the peptide OMN6 of the invention was administered in a single dose, at four different concentrations (mg/kg). Mortality of mice in all experiment groups was monitored in comparison to a Sham (CTRL) group. Food and water consumption, post treatment, was monitored by individual weight measurements once every two days. At the end of the experiment, blood was taken from all animals and 200 μl of blood was separated and plasma was analyzed for erythrocyte hemolysis. • Experimental Map: • 1. Mice (six per group) were given a single-dose administration on day 1, according to group specification (Table 9). Food and water consumption (weight analysis) along with mortality of mice in all groups were monitored for four days post treatment. At the end of the five day trial, the animals were sacrificed. • 2. Free Hgb (hemoglobin) assay was performed on day 5, on all samples from all groups, for erythrocyte hemolysis analysis. • 3. Water/food availability, temperature and other conditions remained unchanged between the groups for the entire five day trial. • 4. Erythrocyte hemolysis analysis was performed via hemoglobin assay kit (Sigma-Aldrich, 3 Plaut St. Rehovot, Israel).
smiles,measurement,setting,value
CC[C@H](C)[C@H](NC(=O)CNC(=O)[C@H](CC(=O)O)NC(=O)[C@H](CCCNC(=N)N)NC(=O)[C@@H](NC(=O)[C@H](CC(N)=O)NC(=O)[C@H](CCC(N)=O)NC(=O)CNC(=O)[C@@H](NC(=O)[C@H](CCCCN)NC(=O)[C@H](CCC(=O)O)NC(=O)[C@@H](NC(=O)[C@H](CCCCN)NC(=O)[C@H](CCCCN)NC(=O)[C@H](Cc1ccccc1)NC(=O)[C@H](CC(C)C)NC(=O)[C@H](CCCCN)NC(=O)[C@H](Cc1c[nH]c2ccccc12)NC(=O)[C@H](CCCCN)NC(=O)[C@H](CS)NC(=O)[C@@H](N)CCSC)[C@@H](C)CC)C(C)C)[C@@H](C)CC)C(=O)N[C@H](C(=O)N[C@@H](CCCCN)C(=O)N[C@@H](C)C(=O)NCC(=O)N1CCC[C@H]1C(=O)N[C@@H](C)C(=O)N[C@H](C(=O)N[C@@H](C)C(=O)N[C@H](C(=O)N[C@H](C(=O)NCC(=O)N[C@@H](CCC(N)=O)C(=O)N[C@@H](C)C(=O)N[C@H](C(=O)N[C@@H](CCC(N)=O)C(=O)N[C@H](C(=O)N[C@@H](C)C(=O)N[C@@H](CCCCN)C(=O)N[C@@H](CS)C(N)=O)[C@@H](C)CC)[C@@H](C)O)C(C)C)C(C)C)C(C)C)[C@@H](C)CC [OMN6] (H-MCKWKLFKKIEKVGQNIRDGIIKAGPAVAVVGQATQIAKC-NH2; N-terminus and C-terminus assumed),Erythrocytes Mean Corpuscular Volume (MCV),"[1]; OMN6 10 μM, 30 min",64
same,Number of live erythrocytes,"[1]; OMN6 10 μM, 30 min",1.69 cells*10^6/ml
same,Erythrocytes Mean Corpuscular Volume (MCV),"[1]; OMN6 10 μM, 60 min",64
same,Number of live erythrocytes,"[1]; OMN6 10 μM, 60 min",1.66 cells*10^6/ml
same,Erythrocytes Mean Corpuscular Volume (MCV),"[1]; OMN6 10 μM, 120 min",63
same,Number of live erythrocytes,"[1]; OMN6 10 μM, 120 min",1.68 cells*10^6/ml
same,Erythrocytes Mean Corpuscular Volume (MCV),"[1]; OMN6 10 μM, 180 min",64
same,Number of live erythrocytes,"[1]; OMN6 10 μM, 180 min",1.67 cells*10^6/ml
same,Erythrocytes Mean Corpuscular Volume (MCV),"[1]; OMN6 20 μM, 30 min",64
same,Number of live erythrocytes,"[1]; OMN6 20 μM, 30 min",1.65 cells*10^6/ml
same,Erythrocytes Mean Corpuscular Volume (MCV),"[1]; OMN6 20 μM, 60 min",64
same,Number of live erythrocytes,"[1]; OMN6 20 μM, 60 min",1.70 cells*10^6/ml
same,Erythrocytes Mean Corpuscular Volume (MCV),"[1]; OMN6 20 μM, 120 min",63
same,Number of live erythrocytes,"[1]; OMN6 20 μM, 120 min",1.71 cells*10^6/ml
same,Erythrocytes Mean Corpuscular Volume (MCV),"[1]; OMN6 20 μM, 180 min",64
same,Number of live erythrocytes,"[1]; OMN6 20 μM, 180 min",1.70 cells*10^6/ml
same,Erythrocytes Mean Corpuscular Volume (MCV),"[1]; OMN6 40 μM, 30 min",64
same,Number of live erythrocytes,"[1]; OMN6 40 μM, 30 min",1.60 cells*10^6/ml
same,Erythrocytes Mean Corpuscular Volume (MCV),"[1]; OMN6 40 μM, 60 min",64
same,Number of live erythrocytes,"[1]; OMN6 40 μM, 60 min",1.80 cells*10^6/ml
same,Erythrocytes Mean Corpuscular Volume (MCV),"[1]; OMN6 40 μM, 120 min",63
same,Number of live erythrocytes,"[1]; OMN6 40 μM, 120 min",1.77 cells*10^6/ml
same,Erythrocytes Mean Corpuscular Volume (MCV),"[1]; OMN6 40 μM, 180 min",64
same,Number of live erythrocytes,"[1]; OMN6 40 μM, 180 min",1.76 cells*10^6/ml
same,Hemolysis of human erythrocytes,[1]; human blood samples,hemolysis of cells did not occur
same,MIC,E. coli ESBL BAA-198,5 µM
same,MIC value,E. coli Sens. 25922; Sens. 25922,6.25 µM
same,Minimal Inhibitory Conc. (MIC),"E. coli Sens. 25922; Sens. 25922, 17 h",12.5 µM
same,"Clinical signs (diarrhea, bloody diarrhea, stand-on-end hair, apathy or restlessness)",[2]; 5-day experiment,not observed
same,Mortality,[2]; 5-day experiment,not observed
same,Toxic or otherwise adverse effects,[2]; 5-day experiment,does not exert any toxic or otherwise adverse effects
same,Weight-loss,[2]; 5-day experiment,not observed
same,Hemolysis of erythrocytes (Free Hgb assay),[2]; day 5,No evidence of hemolysis
